Experimental data taken from patent publication US6083920A, “Compositions for modulating intracellular inositol trisphosphate concentration” (priority 1996, dated 2000).
Values joined by “and” are separate entries in the source; they are usually repeats but may differ in a detail not shown here. Identical values can stand only once. “Also recorded” adds a separate entry of the source.

Key:
[1] = tested on: metabotropic glutamate receptor; assay: Behavioral analysis after ICV infusion (quisqualate excitotoxicity); format: in vivo, male F344 rats; settings: for effective dose: ICV, pilot testing; for death, cases: 120 min; for convulsant behavior, compound alone: no quisqualate
Experimental: The animals used in this experiment were male F344 rats (Charles River Breeding Laboratories). The animals were housed individually, exposed to a 12-hour light-dark cycle, and allowed free access to food and water. The animals weighed approximately 250 g at the beginning of each experiment and were weighed daily. In addition, the animals were habituated to handling before each experiment.
Before administering various compounds, the animals were anesthetized with sodium pentobarbital (50 mg/kg, i.p.) and positioned in a sterotaxic instrument. A 26 gauge cannula was inserted into the cerebral ventricle at the following co-ordinates: 1.0 mm posterior to bregma, 1.5 mm lateral to the midline, and 4.0 mm below the dorsal surface of the neocortex. Cannulas were capped and fixed in place with dental cement. One week after cannulation, 10 μl of each of the treatment drugs was infused, ICV (i.e. into the ventricals of the brain), via a micropump at a rate of 10 μl/min. For this procedure, the animals were lightly restrained and unanesthetized. Following administration of the compound, the infusion cannula remained in position for one minute, after which the permanent in situ cannula was capped.
The compounds administered were obtained from a commercial supplier (Sigma Chemical Co., St. Louis, Mo.) and dissolved in saline prior to injection. […]
Pilot studies identified several specific behavioral measures that could be used to indicate excessive activation of the metabotropic receptor (see Table 3). […] The experiments that follow were based on an analysis of these behaviors over a two hour period after administration of the compounds of the invention. Behavioral observation was carried out by two trained observers, who worked independently of one another and who were blind to the experimental groups. […] Frequency and duration means were computed by subtracting pre-infusion means from post-infusion means.
Some of the experiments that were performed first were carried out to determine the amount of quisqualate required to produce behavioral and histological changes and the amount of lysosphingolipids that could effectively prevent or reverse these effects. Table 3 outlines the behavioral responses of rats to various doses of quisqualate (injected as described above) and the associated histological changes. The behaviors are listed as they occur chronologically. The limb clasp and reflex tests indicate the degree of decortication. A limb clasp or placement score of zero is normal, and a score of 3 is severely abnormal.
The data shown in Table 4 represents the observations of pilot studies aimed at determining the effect (on behavior) of lysosphingolipids infused directly into the lateral ventricles of the brain 30 minutes prior to infusion of quisqualate.
The experiment began one week after ICV cannulation. Animals (n=6 per group) were randomly allocated to one of 8 treatment groups: (1) saline, (2) quisqualate at 225 nmoles, (3) psychosine at 125 nmoles, (4) lysosphingomyelin at 125 nmoles, (5) lysosphingomyelin at 150 nmoles, (6) quisqualate at 225 nmoles and psychosine at 125 nmoles, (7) quisqualate at 225 nmoles and lysosphingomyelin at 125 nmoles, and (8) quisqualate at 225 nmoles and lysosphingomyelin at 150 nmoles. Following the baseline observation period, animals received the first of two ICV infusions (all infusions were of a 10 μl volume that was administered over a 1 minute period). For the first five groups listed above, this consisted of saline (10 μl/minute), for the following 3 groups the infusions were psychosine at 125 nmoles, lysosphingomyelin at 125 nmoles, or Iysosphingomyelin at 150 nmoles, respectively. Thirty minutes later, all animals received the second infusion which, for the first five groups listed above, consisted of saline, quisqualate at 225 nmoles, psychosine at 125 nmoles, lysosphingomyelin at 125 mrnoles, and lysosphingomyelin at 150 nmoles respectively. […]

[2] = Lysosphingolipid loading of isolated neuronal plasma membrane; format: in vitro ADME, chick; settings: Plasma Membrane Suspension, 10 μmolar exposure
Excerpt: Total lipids were removed from the neuron samples by repeated extraction with chloroforn:methanol (2:1, vol:vol). […] The recovered lysosphingolipids were stably tagged with NBDZF by the rapid procedure of Nozowa et al. (supra). The fluorescence tagged neuronal lysosphingolipids were separated in parallel with reference standards NBDZF-Sph, NBDZF-Psy, and NBDZF-Lsm on high performance silica gel thin layer chromatography plates with acetonitrile:H2 O (10:0.5, vol:vol). The highly fluorescent, well separated bands were scraped from the plate. The fluorescence tagged lysosphingolipids are eluted from the scraped silica gel with methanol:1 N HCl (1:0.02, vol:vol). The fluorescence tagged lysosphingolipid eluates were quantitated against reference standards by fluorescence measurement in a Perkin-Elmer LS-5 Fluorescence Spectrometer.
Physiologically active phospholipase C is present on the endofacial portion of the plasma membrane. A procedure for examining its activity in an intact membrane is provided. […] One hundred Petri dishes of cultured cortical neurons were incubated overnight with 50 μCi [^3 H]myo-inositol per mL of culture medium. […] The collected neurons were homogenized in 5 mL 0.32 M sucrose and centrifuged at 1000×g for 15 minutes. The supernatant was layered on top of 2 ml 1.2 M sucrose and centrifuged at 300,000×g for 20 minutes. The sedimented pellet was resuspended by sonication for 10 seconds in 50 mM Tris buffer (pH 7.4), containing 0.3 μM CaCl2, 1 mM MgCl2, and 0.01% ascorbic acid.
The suspended plasma membrane preparation was apportioned into 250 μl samples, each providing approximately 100 μg membrane protein. Sphingosine, psychosine, and lysosphingomyelin were added to each plasma membrane sample. […] Samples were analyzed for lysosphingolipid loading (i.e., membrane lysosphingolipid content following exposure to exogenous sphingolipid) by fluorescence tagging. […] Values are reported in pmoles lysosphingolipid/mg plasma membrane protein.

[3] = tested on: phospholipase C isoforms beta, delta, and gamma; settings: for effect on KM for substrate phosphatidylinositol bis-phosphate: 10 μM lysocerebroside, 5 μM lysosphingomyelin
Experimental: The effects of sphingosine, lysocerebroside, and lysosphingomyelin on the kinetics of pure, immunologically isolated phospholipase C isoforms beta, delta, and gamma (which are commercially available) was examined. For each isoform, 10 μM sphingosine was added to a reaction medium consisting of 1 μg phospholipase C isoform/ml, Tris-malate buffer (50 mM, pH 7.0) containing 100 μM phosphatidyl inositol bis-phosphate tri-ammonium salt, 0.01 μCi tritium labeled phosphatidyl inositol bis-phosphate, 100 mM NaCl, 10 mM CaCl2, and 5 mM 2-merceptoethanol.

[4] = Quisqualate 225 nmoles ICV, rat
[5] = Quisqualate 250 nmoles ICV, rat
[6] = 10 μM lysocerebroside or 5 μM lysosphingomyelin

SMILES: N[C@@H](Cn1oc(=O)[nH]c1=O)C(=O)O [Quisqualate, quisqualate]
- effective dose ([1]; rat): 225 nmol
- BEHAVIOR ([1]; Quisqualate 100 nmoles ICV, rat): teeth chatter; also recorded: mild scratching; also recorded: hind leg weakness 60 minutes
- placement and clasp reflex score ([1]; Quisqualate 100 nmoles ICV, score zero is normal, 3 is severely abnormal): 0
- BEHAVIOR ([1]; Quisqualate 150 nmoles ICV, rat): teeth chatter; also recorded: localized twitches; also recorded: mild hyperactivity walking in circles; also recorded: hind leg weakness for 60 minutes
- BEHAVIOR ([1]; Quisqualate 150 nmoles ICV, rat, listed as quisqualate): increase in activity and teeth chattering
- placement and clasp reflex score ([1]; Quisqualate 150 nmoles ICV, score zero is normal, 3 is severely abnormal): 0
- BEHAVIOR ([1]; Quisqualate 200 nmoles ICV, rat): teeth chatter; also recorded: occasional mild convulsions; also recorded: hyperactivity - circle walking; also recorded: episodic akinesia/tonic immobility; also recorded: hind leg weakness
- limb clasp and placement reflex score ([1]; Quisqualate 200 nmoles ICV, score zero is normal, 3 is severely abnormal): 0
- BEHAVIOR [1, 4]: teeth chatter; also recorded: hind leg paralysis; also recorded: hyperactivity/walk in circles; also recorded: full body convulsions - moderate; also recorded: localized spasms twitching/jerking; also recorded: episodic akinesia/tonic immobility; also recorded: respiratory distress; also recorded: foaming at mouth
- death, cases [1, 4]: 60%
- BEHAVIOR ([1]; Quisqualate 225 nmoles ICV, rat, listed as quisqualate): moderate convulsions
- placement and clasp reflex score ([1]; Quisqualate 225 nmoles ICV, score zero is normal, 3 is severely abnormal): 1-2
- BEHAVIOR [1, 5]: vocalization; also recorded: teeth chattering; also recorded: scratching; also recorded: localized spasms jerking/twitching; also recorded: full body convulsions-severe/repeated; also recorded: foaming at mouth; also recorded: respiratory distress
- death, cases [1, 5]: 75%
- BEHAVIOR ([1]; Quisqualate 250 nmoles ICV, rat, listed as quisqualate): severe convulsions and death
- placement and clasp reflex score ([1]; Quisqualate 250 nmoles ICV, score zero is normal, 3 is severely abnormal): 3
- BEHAVIOR ([1]; Quisqualate 1 μmoles ICV, rat): severe repeated full body convulsions; also recorded: severe scratching; also recorded: severe teeth chattering; also recorded: foaming at mouth
- time to death ([1]; Quisqualate 1 μmoles ICV, rat): 5 to 15 min
- death, cases ([1]; Quisqualate 1 μmoles ICV, rat): 100%
- BEHAVIOR ([1]; Quisqualate 500 μmoles ICV, rat): vocalization
- duration of teeth chattering, akinesia and mobilization versus lysosphingolipid-alone groups and quisqualate + lysosphingomyelin 150 nmoles ([1]; quisqualate alone 225 nmoles ICV): significantly (p<.01) more time engaged in these behaviors
- number of convulsions/spasms compared to all other groups ([1]; quisqualate alone at 225 nmoles ICV, 2 hours observation, n=6): significantly (p.<01) more convulsions/spasms

SMILES: CCCCCCCCCCCCC/C=C/[C@@H](O)[C@@H](N)COP(=O)([O-])OCC[N+](C)(C)C [lysosphingomyelin, sphingosyl phosphoryicholine]
- membrane lysosphingolipid content, 0 hours of incubation [2]: 5 ± 1 pmoles lysosphingolipid/mg pla
- membrane lysosphingolipid content, 0.5 hours of incubation [2]: 65 ± 15 pmoles lysosphingolipid/mg pla
- membrane lysosphingolipid content, 1.0 hours of incubation [2]: 110 ± 15 pmoles lysosphingolipid/mg pla
- membrane lysosphingolipid content, 2.0 hours of incubation [2]: 120 ± 10 pmoles lysosphingolipid/mg pla
- membrane lysosphingolipid content, 3.0 hours of incubation [2]: 145 ± 25 pmoles lysosphingolipid/mg pla
- convulsant behavior, compound alone ([1]; 125 nmoles ICV): displayed no convulsant behavior
- convulsant behavior, compound alone ([1]; 150 nmoles ICV): displayed no convulsant behavior
- effective dose ([1]; rat): 125 nmol and 150 nmol
- sedation produced by the lysosphingolipid ([1]; Lysosphingomyelin 150 nmoles ICV): mild sedation
- behavioral or neurotoxic effects of the compound itself ([1]; doses as high as 125 nmoles per animal ICV): no behavioral or neurotoxic effects were observed
- behavioral and histological changes caused by quisqualate ([1]; pretreated with 125 nmoles ICV, rat): absent
- number of convulsions or spasms ([1]; pretreatment 125 nmoles ICV 30 minutes before quisqualate 225 nmoles, n=6): significantly (p<01) attenuated
- number of convulsions or spasms ([1]; pretreatment 150 nmoles ICV 30 minutes before quisqualate 225 nmoles, n=6): significantly (p<01) attenuated
- time quisqualate-alone animals spent in teeth chattering, akinesia and mobilization compared with this group ([1]; quisqualate 225 nmoles and lysophingomyelin 150 nmoles ICV): significantly (p<.01) more time
- diminution in Vmax [3, 6]: 60%±10%
- increase in calcium ion concentration required for optimal activity [3, 6]: 5 fold
- effect on KM for substrate phosphatidylinositol bis-phosphate ([3]; 10 μM sphingosine): no change

SMILES: CCCCCCCCCCCCC/C=C/[C@@H](O)[C@@H](N)CO [sphingosine]
- membrane lysosphingolipid content, 0 hours of incubation [2]: 105 ± 5 pmoles lysosphingolipid/mg pla
- membrane lysosphingolipid content, 0.5 hours of incubation [2]: 113 ± 15 pmoles lysosphingolipid/mg pla
- membrane lysosphingolipid content, 1.0 hours of incubation [2]: 140 ± 15 pmoles lysosphingolipid/mg pla
- membrane lysosphingolipid content, 2.0 hours of incubation [2]: 165 ± 20 pmoles lysosphingolipid/mg pla
- membrane lysosphingolipid content, 3.0 hours of incubation [2]: 175 ± 25 pmoles lysosphingolipid/mg pla
- calcium ion concentration required for optimal activity ([3]; 10 μM sphingosine): decrease
- effect on KM for substrate phosphatidylinositol bis-phosphate ([3]; 10 μM sphingosine): no effect
